Results on 2 compounds are retold here after patent publication US20110268721A1, “Therapy Regimens, Dosing Regimens And Stable Medicaments For The Treatment Of Pompe Disease” (Amicus Therapeutics, Inc., priority 2008, published 2011).

Where a name gives a salt, the structure may show the parent alone.

Data set [1] deals with T1, recombinant human GAA (Myozyme®, Genzyme Corp.) (Homo sapiens, UniProt P10253).
T1 construct: purchased Genzyme Corp
As to the kind of experiment: SYPRO Orange thermal stability assay (heat-induced denaturation). It is filed as binding. The text has this: The thermal stability assay utilizes heat to induce protein denaturation, which is monitored using a SYPRO Orange dye that fluoresces upon binding to hydrophobic amino acids (which are not exposed in a folded protein).
FIG. 5 depict the results of a thermal stability assay that utilizes heat to induce protein denaturation, which is monitored using a SYPRO Orange dye that fluoresces upon binding to hydrophobic amino acids (which are not exposed in a folded protein).
Denaturation is monitored using a SYPRO Orange dye that fluoresces upon binding to hydrophobic amino acids (which are not exposed in a folded protein).
The thermal stability was performed at pH 7.4 for two formulations, which corresponds to the pH of the ER.
A thermal stability experiment as generally described in Example 1 was performed on four compositions:
(1) Myozyme only composition;

The target of data set [2] is T1, recombinant human GAA (Myozyme®, Genzyme Corp.). Nature of the data set: SYPRO Orange protein folding monitored at 37° C. over 24 hours. Type of data set: binding. The conditions noted are these: plasma pH (7.4), 100 μM 1-DNJ-HCl. The procedure: FIG. 2B depicts a parallel SYPRO Orange thermal stability experiment to determine if the loss of enzyme activity shown in FIG. 2A, particularly the loss of Myozyme activity at ER pH (7.4), correlates with protein unfolding and denaturation.
In order to determine if loss of initial enzyme activity is correlated to failure to maintain a proper conformation, a SYPRO Orange thermal stability experiment was performed on the samples above as generally described in Example 1. […] Based on this experiment, the % of GAA folded was estimated and plotted in FIG. 2B.

Data set [3] has as its system GAA KO mice. As to the kind of experiment: Myozyme tissue uptake (GAA activity, 4-MUG) in GAA KO mice with or without oral 1-DNJ-HCl. It is filed as in vivo. The source says:
Enzymatic activity as determined using a 4-MUG fluorogenic substrate assay.

For a further data set, the system named is GAA KO mouse. Nature of the data set: GAA activity in heart and diaphragm tissue of GAA KO mouse, rhGAA with or without 1-DNJ-HCl. Type of data set: in vivo. How it is done: Three groups of GAA KO Mice were administered one of the following formulations: […]
(1) Control (No Treatment);
Heart and Diaphragm tissue homogenates were harvested and rhGAA activity was measured using the fluorogenic substrate (4-MUG).

The next data set addresses T2, rhGAA (Myozyme™) (Homo sapiens, UniProt P10253).
T2 construct: purchased Genzyme Corp; host or cells: Chinese hamster ovary cell line
Nature of the data set: rhGAA enzyme inactivation in citrate anti-coagulated whole blood at 37° C. (4-MUG). Type of data set: biochemical. The procedure: Aliquots were collected at 0, 2, 4, 8 and 24 hrs and centrifuged to obtain plasma. These plasma samples were then diluted in potassium acetate buffer (pH 4.0) and assayed for GAA activity using the 4-methylumbeliferyl-α-glucose (4-MUG) fluorogenic substrate. The measured GAA activity for individual samples at each time point was normalized to the 0 hr and expressed as % of initial activity. Data from 4 independent experiments were analyzed to obtain the mean (and standard deviation) and plotted versus time to assess the loss of enzyme activity over this time course.
Aliquots were collected at 0, 3 and 6 hrs and centrifuged to obtain plasma. These plasma samples were then diluted in potassium acetate buffer (pH 4.0) and assayed for GAA activity using the 4-methylumbeliferyl-α-glucose (4-MUG) fluorogenic substrate. The measured GAA activity for individual samples at each time point was normalized to the 0 hr and expressed as % of initial activity.
Based on human plasma PK data, these concentrations are readily obtainable in the clinic.

The target in data set [4] is T3, GAA in cell lines derived from late-onset Pompe patients with the IVS 1 (−13 T>G) splicing defect (Homo sapiens, UniProt P10253).
T3 construct: endogenous in cells
As to the kind of experiment: GAA levels in cell lines derived from late-onset Pompe patients. It is filed as cell-based. The conditions noted are these: IVS 1 (−13 T>G) splicing mutation.

Data set [5] has as its system GAA KO mice. Nature of the data set: Tissue glycogen reduction in GAA KO mice. Type of data set: in vivo. The conditions noted are these: Myozyme 40 mg/kg IV every other week for 8 weeks, 1-DNJ-HCl 30 mg/kg oral 30 minutes prior where co-administered. The procedure:
Glycogen reduction with Myozyme™ alone was 93±1%, 41±4%, 69±3%, and 18±4%, in heart, diaphragm, soleus, and quadriceps, respectively, relative to untreated mice.
Twelve-week old male GAA KO mice were administered a single dose of Myozyme™ (40 mg/kg) via bolus tail vein injection every other week for 8 weeks. To prevent anaphylaxis, before the third and fourth Myozyme™ injection, diphenhydramine (10 mg/kg intraperitoneally) was administered 10 min before Myozyme™ injection. […] Mice were euthanized 14 days after the last Myozyme™ administration.
Glycogen levels in heart, diaphragm, soleus, and quadriceps were then measured. […] Briefly, homogenates were prepared by homogenizing ˜50 mg tissue for 3-5 seconds on ice with a microhomogenizer in 200 μL deionized water. Supernatants were heat denatured (99° C. for 10 min) to remove endogenous amyloglucosidase activity. Denatured lysates (4 μL) were then analyzed in duplicate by addition of 36 μL water with and without 10 μL of 800 U/mL of amyloglucosidase (Sigma Aldrich, St. Louis, Mo.) and incubated for 1 hour at 50° C. The reaction was stopped by inactivation at 100° C. for 10 min. Finally, 200 μL of glucose reagent (Sigma) was added absorbance read at 340 nm on Spectramax. A standard curve ranging from 5 μg/mL to 400 μg/mL Type III rabbit liver glycogen (Sigma) was run each day for conversion of absorbance to absolute glycogen units. Simultaneously, the amount of protein was determined in tissue homogenates using the Micro BCA Protein Assay (Pierce, Rockford, Ill.) following the manufacturer's instructions. The glycogen content of each sample was normalized to protein, and data were finally expressed as micrograms of glycogen per milligram of protein (μg/mg protein).

The conditions of data set [6]: stored at 2 to 8° C.; patient instructions for Myozyme; cited from earlier work.
For data set [7] the following is noted: reported value; cited from earlier work.

`OC[C@H]1NC[C@H](O)[C@@H](O)[C@@H]1O` [1-DNJ-HCl, 1-deoxynorjirimycin hydrochloride]: the “thermal stability of rhGAA (heat required to denature)” value in [1] (pH 7.4, 100 μM 1-DNJ-HCl, compared to formulation without the ASSC) is reported as “required significantly more heat to denature”. Besides, the “prevention of GAA denaturation and loss of enzyme activity” value in [2] is “can prevent GAA denaturation and loss of enzyme activity”. For the same compound, the “effect of co-administration on Myozyme tissue uptake” value in the data set on GAA KO mice [3] (10, 100, 1000 mg/kg oral 1-DNJ-HCl with Myozyme 10 mg/kg IV, up to 7 days post injection) is “dose-dependent increase”. Moreover, in the data set with GAA KO mouse (GAA KO mice, 100 mg/kg p.o., regimen including administration prior to rhGAA injection), the “increase of uptake of rhGAA in heart and diaphragm” value was “approximately 2 fold”. Moreover, the “rhGAA uptake in the heart and diaphragm (GAA activity)” value in the data set with GAA KO mouse (GAA KO mouse, co-administered with rhGAA versus ERT monotherapy) is listed as “increased”. The “rhGAA activity in whole blood with 1-DNJ-HCl” value on rhGAA (Myozyme™) (50 μM 1-DNJ-HCl, 37° C., throughout 24 hrs) is on record as “remained completely active”. The “stabilization of rhGAA in whole blood” value on rhGAA (Myozyme™) (high 1-DNJ-HCl concentrations (50 and 100 μM), range tested 0-100 μM) was “best for stabilizing rhGAA and preventing enzyme inactivation”. For the same compound, the “GAA levels in patient-derived cell lines” value in [4] was “increased GAA levels alone and in combination with hrGAA”.

Take “Myozyme: alglucosidase alfa, human acid α-glucosidase produced by recombinant DNA technology in a Chinese hamster ovary cell line (Genzyme)”: the “thermal stability of Myozyme alone” value in [1] (lysosomal pH (5.2) versus ER pH (7.4), no ASSC) is given as “much more stable at lysosomal pH (5.2) than at ER pH (7.4)”. Besides, the “Myozyme tissue uptake (as a measure of GAA activity)” value in the data set with GAA KO mice [3] (Myozyme 10 mg/kg IV once per week, 7 days post injection, all groups) is on record as “declined”. Also, in the data set with GAA KO mice [5], the “glycogen reduction in diaphragm relative to untreated mice” value is reported as 41±4%, the “glycogen reduction in heart relative to untreated mice” value is listed as 93±1%, the “glycogen reduction in quadriceps relative to untreated mice” value is 18±4% and the “glycogen reduction in soleus relative to untreated mice” value is on record as 69±3%. Further, the “time the product is stable on storage” value in data set [6] is listed as “up to 24 hours”. For the same compound, in data set [7], the “plasma half-life of Myozyme (reported)” value is listed as “more than 3 hrs”.
